Data published in PubChem BioAssay (NCI).
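Five concentrations, 48 hours, 96-well plates. TGI is the concentration that stops growth completely.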

Key:
Test in all cases: growth of human tumour cells (NCI), 48 h
HCT-116 colon = tested on: HCT-116 colon
IGROV1 ovarian = tested on: IGROV1 ovarian
K-562 leukemia = tested on: K-562 leukemia
MCF7 breast = tested on: MCF7 breast
MDA-MB-435 = tested on: MDA-MB-435
NCI-H226 lung = tested on: NCI-H226 lung
NCI/ADR-RES ovarian = tested on: NCI/ADR-RES ovarian
OVCAR-3 ovarian = tested on: OVCAR-3 ovarian
SR leukemia = tested on: SR leukemia
UO-31 renal = tested on: UO-31 renal
A549 NSCLC = tested on: A549 NSCLC
SN12C renal = tested on: SN12C renal
SNB-19 CNS = tested on: SNB-19 CNS

COc1cc(C=C2C(C)=NN(c3cccc(Cl)c3)C23C(Cl)C(=O)N3c2nc3ccccc3s2)ccc1O (stereo not given)
TGI (HCT-116 colon): 45 µM
TGI (IGROV1 ovarian): 48.4 µM
TGI (K-562 leukemia): 25.2 µM
TGI (MCF7 breast): > 100 µM
TGI (MDA-MB-435): 35.1 µM
TGI (NCI-H226 lung): 63.6 µM
TGI (NCI/ADR-RES ovarian): > 100 µM
TGI (OVCAR-3 ovarian): 72.2 µM
TGI (SR leukemia): 17.2 µM
TGI (UO-31 renal): 55 µM

Cc1nn(C(=O)c2ccncc2)c2c1C(c1ccccc1)SC(N)=N2 (stereo not given)
TGI (A549 NSCLC): > 10 µM
TGI (HCT-116 colon): > 10 µM
TGI (IGROV1 ovarian): > 10 µM
TGI (K-562 leukemia): > 10 µM
TGI (MCF7 breast): > 10 µM
TGI (MDA-MB-435): > 10 µM
TGI (NCI-H226 lung): > 10 µM
TGI (NCI/ADR-RES ovarian): > 10 µM
TGI (OVCAR-3 ovarian): > 10 µM
TGI (SN12C renal): > 10 µM
TGI (SNB-19 CNS): > 10 µM
TGI (SR leukemia): > 10 µM

O=C1CC(=O)NC(=NN2C(=O)/C(=C/c3ccccc3)N=C2c2ccccc2)N1
TGI (A549 NSCLC): > 100 µM
TGI (HCT-116 colon): > 100 µM
TGI (IGROV1 ovarian): > 100 µM
TGI (K-562 leukemia): > 100 µM
TGI (MCF7 breast): > 100 µM
TGI (MDA-MB-435): > 100 µM
TGI (NCI-H226 lung): > 100 µM
TGI (NCI/ADR-RES ovarian): > 100 µM
TGI (OVCAR-3 ovarian): > 100 µM
TGI (SN12C renal): > 100 µM
TGI (SR leukemia): > 100 µM
TGI (UO-31 renal): > 100 µM

CC(=O)Oc1cc2c(c3ncccc13)OC(C)(C)C2
TGI (A549 NSCLC): 27.4 µM
TGI (HCT-116 colon): 27.5 µM
TGI (IGROV1 ovarian): 12.4 µM
TGI (K-562 leukemia): 23.4 µM
TGI (MCF7 breast): 61.8 µM
TGI (MDA-MB-435): 24 µM
TGI (NCI-H226 lung): 33.1 µM
TGI (NCI/ADR-RES ovarian): 23.9 µM
TGI (OVCAR-3 ovarian): 55 µM
TGI (SN12C renal): 25.9 µM
TGI (SR leukemia): 6 µM
TGI (UO-31 renal): > 100 µM

COC(C(=O)C(O)C(C)O)C1CC2C=C3C=C(OC4CC(OC5CC(O)C(OC)C(C)O5)C(OC(C)=O)C(C)O4)C(C)C(=O)C3=C(O)C2=C(O)C1OC1CC(OC2CC(OC3CC(C)(O)C(OC(=O)C(C)C)C(C)O3)C(O)C(C)O2)C(O)C(C)O1 (stereo not given)
TGI (HCT-116 colon): > 100 µM
TGI (IGROV1 ovarian): > 100 µM
TGI (K-562 leukemia): < 0.01 µM
TGI (MCF7 breast): > 100 µM
TGI (MDA-MB-435): < 0.01 µM
TGI (NCI-H226 lung): < 0.01 µM
TGI (NCI/ADR-RES ovarian): 0.425 µM
TGI (SN12C renal): < 0.01 µM
TGI (SR leukemia): < 0.01 µM
